Source: patent publication US9211310B2, “Use of a Chinese medicine composition in preparing medicaments for treating secondary prevention of myocardial infarction” (TASLY PHARMACEUTICAL GROUP CO., LTD, priority 2010, dated 2015)

System: patients after acute myocardial infarction
Assay: TCM symptom score, total and single (chest pain, chest tightness, short breath, fatigue, palpitation, spontaneous perspiration, pale complexion), same clinical trial
Type: in vivo, human
Parameters: total score of TCM symptom, Mean / total score of TCM symptom, Min / total score of TCM symptom, Max / total score of TCM symptom, Md / change of total score of TCM symptom, Mean / change of total score of TCM symptom, Max / change of total score of TCM symptom, Md: scale not given here
Settings: FAS
Text: 3508 patients who were in accordance with the diagnostic standards of AMI for 28 days to 2 years and differentiated as Qi deficiency and blood stagnation syndrome by TCM were studied. 0.5 g Chinese medicine composition prepared by the method of EXAMPLE 1 (Coded as QSYQ) was administrated half an hour after meal, 3 times per day.
They included the overall survival time, angina pectoris score, TCM symptom score and life quality score, where angina pectoris score, TCM symptom score and life quality score were evaluated at randomization, in 1st, 3rd, 6th, 9th, 12th month after treatment and 18th month after follow-up.
The analysis method referred to the angina pectoris score.

[1] = 9 months after treatment-baseline
[2] = 12 months after treatment-baseline

## CC(=O)Oc1ccccc1C(=O)O [Control group, aspirine]
[1]
  change of pale complexion −1, number of patients: 59
  change of pale complexion −1, percent of patients: (3.45%)
  change of palpitation 0, number of patients: 948
  change of palpitation 0, percent of patients: (55.44%)
  change of palpitation 1, number of patients: 557
  change of palpitation 1, percent of patients: (32.57%)
  change of palpitation 2, number of patients: 76
  change of palpitation 2, percent of patients: (4.44%)
  change of palpitation 3, number of patients: 7
  change of palpitation 3, percent of patients: (0.41%)
  change of palpitation −1, percent of patients: (6.84%)
  change of palpitation −2, number of patients: 5
  change of palpitation −2, percent of patients: (0.29%)
  change of palpitation −3, number of patients: 0
  change of palpitation −3, percent of patients: (0.00%)
  change of short breath 0, % of patients: (59.06%)
  change of short breath 0, number of patients: 1010
  change of short breath 2, % of patients: (30.35%)
  change of short breath 2, number of patients: 519
  change of short breath 4, % of patients: (3.57%)
  change of short breath 4, number of patients: 61
  change of short breath 6, % of patients: (0.47%)
  change of short breath 6, number of patients: 8
  change of short breath −2, % of patients: (6.26%)
  change of short breath −2, number of patients: 107
  change of short breath −4, % of patients: (0.23%)
  change of short breath −4, number of patients: 4
  change of short breath −6, % of patients: (0.06%)
  change of short breath −6, number of patients: 1
  change of spontaneous perspiration 0, number of patients: 910
  change of spontaneous perspiration 0, percent of patients: (53.25%)
  change of spontaneous perspiration 1, number of patients: 491
  change of spontaneous perspiration 1, percent of patients: (28.73%)
  change of spontaneous perspiration 2, number of patients: 113
  change of spontaneous perspiration 2, percent of patients: (6.61%)
  change of spontaneous perspiration 3, number of patients: 31
  change of spontaneous perspiration 3, percent of patients: (1.81%)
  change of spontaneous perspiration −1, number of patients: 154
  change of spontaneous perspiration −1, percent of patients: (9.01%)
  change of spontaneous perspiration −2, number of patients: 10
  change of spontaneous perspiration −2, percent of patients: (0.59%)
  change of spontaneous perspiration −3, number of patients: 0
  change of spontaneous perspiration −3, percent of patients: (0.00%)
  change of total score of TCM symptom, Max: 15.00
  change of total score of TCM symptom, Md: −4.00
  change of total score of TCM symptom, Mean: −4.52
  change of total score of TCM symptom, Min: −33.00
12 months after treatment
  change of short breath 0, number of patients: 955
  distribution of total score of TCM symptom: Medium, number of patients: 235
  distribution of total score of TCM symptom: Medium, percentage of patients: (16.31%)
  distribution of total score of TCM symptom: Mild, number of patients: 1205
  distribution of total score of TCM symptom: Mild, percentage of patients: (83.62%)
  distribution of total score of TCM symptom: Severe, number of patients: 1
  distribution of total score of TCM symptom: Severe, percentage of patients: (0.07%)
  fatigue score 0, % of patients: (36.67%)
  fatigue score 0, number of patients: 630
  fatigue score 2, % of patients: (58.21%)
  fatigue score 2, number of patients: 1000
  fatigue score 4, % of patients: (4.42%)
  fatigue score 4, number of patients: 76
  fatigue score 6, % of patients: (0.70%)
  fatigue score 6, number of patients: 12
  pale complexion score 0, number of patients: 1011
  pale complexion score 0, percent of patients: (58.85%)
  pale complexion score 1, number of patients: 590
  pale complexion score 1, percent of patients: (34.34%)
  pale complexion score 2, number of patients: 104
  pale complexion score 2, percent of patients: (6.05%)
  pale complexion score 3, number of patients: 13
  pale complexion score 3, percent of patients: (0.76%)
  palpitation score 0, number of patients: 669
  palpitation score 0, percent of patients: (38.94%)
  palpitation score 2, number of patients: 892
  palpitation score 2, percent of patients: (51.92%)
  palpitation score 4, number of patients: 138
  palpitation score 4, percent of patients: (8.03%)
  palpitation score 6, number of patients: 19
  palpitation score 6, percent of patients: (1.11%)
  short breath score 0, % of patients: (31.72%)
  short breath score 0, number of patients: 545
  short breath score 3, % of patients: (57.92%)
  short breath score 3, number of patients: 995
  short breath score 6, % of patients: (10.07%)
  short breath score 6, number of patients: 173
  short breath score 9, % of patients: (0.29%)
  short breath score 9, number of patients: 5
  spontaneous perspiration score 0, number of patients: 845
  spontaneous perspiration score 0, percent of patients: (49.19%)
  spontaneous perspiration score 1, number of patients: 804
  spontaneous perspiration score 1, percent of patients: (46.80%)
  spontaneous perspiration score 2, number of patients: 58
  spontaneous perspiration score 2, percent of patients: (3.38%)
  spontaneous perspiration score 3, number of patients: 11
  spontaneous perspiration score 3, percent of patients: (0.64%)
  total score of TCM symptom, Max: 37.00
  total score of TCM symptom, Md: 8.00
  total score of TCM symptom, Mean: 8.41
  total score of TCM symptom, Min: 0.00
[2]
  change of fatigue 0, % of patients: (47.08%)
  change of fatigue 0, number of patients: 805
  change of fatigue 2, % of patients: (35.38%)
  change of fatigue 2, number of patients: 605
  change of fatigue 4, % of patients: (9.59%)
  change of fatigue 4, number of patients: 164
  change of fatigue 6, % of patients: (1.46%)
  change of fatigue 6, number of patients: 25
  change of fatigue −2, % of patients: (5.85%)
  change of fatigue −2, number of patients: 100
  change of fatigue −4, % of patients: (0.64%)
  change of fatigue −4, number of patients: 11
  change of fatigue −6, % of patients: (0.00%)
  change of fatigue −6, number of patients: 0
  change of pale complexion 0, number of patients: 1202
  change of pale complexion 0, percent of patients: (70.37%)
  change of pale complexion 1, number of patients: 450
  change of pale complexion 1, percent of patients: (26.35%)
  change of pale complexion −1, number of patients: 56
  change of pale complexion −1, percent of patients: (3.28%)
  change of palpitation 0, number of patients: 882
  change of palpitation 0, percent of patients: (51.58%)
  change of palpitation 1, number of patients: 602
  change of palpitation 1, percent of patients: (35.20%)
  change of palpitation 2, number of patients: 102
  change of palpitation 2, percent of patients: (5.96%)
